Experimental data reported in patent publication US20150290333A1, “PROCESS AND MATERIALS FOR MEDICAL APPLICATIONS” (NATIONAL UNIVERSITY OF SINGAPORE, priority 2012, published 2015).

System: human mesenchymal stem cells
Assay: Pinocytosis inhibition studies
Assay type: cell-based
Details: PVP, Fc70, Fc400
Protocol: Cells were viewed with a FV300 laser scanning confocal microscope (Olympus, Japan). The excitation beam from a 543-nm HeNe ion laser (MellesGriot, Singapore) was focused by a water immersion objective (60×, NA1.2, Olympus) into the fluorescent sample. For organelle co-localization studies, an additional 488-nm Ar laser (MellesGriot, Singapore) was used to excite fluorescent organelle labels. Images were acquired with the Olympus FV300 software.
hMSCs (Lonza) were pre-incubated for 1 hour with 10 mM methyl beta cyclodextrin (MBCD, Sigma-Aldrich), 28 μM chlorpromazine (CPZ, Sigma-Aldrich), 300 μM amiloride (Am, Sigma-Aldrich), and 10 μM monensin (Mon, Sigma-Aldrich) in serum-free LGDMEM. The cells were then incubated for a further 1 hour with a mixture of each inhibitor and each TRITC-labelled polymer in serum-free LGDMEM.

## methyl-beta-cyclodextrin [MβCD]
10 mM inhibitor
  Effect of pinocytosis inhibitor on uptake of TRITC-labelled polymers: completely inhibited uptake of all polymers

## CN(C)CCCN1c2ccccc2Sc2ccc(Cl)cc21 [CPZ, chlorpromazine]
28 μM inhibitor
  Effect of pinocytosis inhibitor on uptake of TRITC-labelled polymers: reduced polymer presence across the board, but trapped Fc in the worm-like compartments

## N=C(N)NC(=O)c1nc(Cl)c(N)nc1N [Am, amiloride]
300 μM inhibitor
  Effect of pinocytosis inhibitor on uptake of TRITC-labelled polymers: no significant effects

## CC[C@@]1([C@@H]2O[C@@H]([C@H]3O[C@@](O)(CO)[C@H](C)C[C@@H]3C)C[C@@H]2C)CC[C@H]([C@]2(C)CC[C@]3(C[C@H](O)[C@@H](C)[C@@H]([C@@H](C)[C@@H](OC)[C@H](C)C(=O)O)O3)O2)O1 [Monensin, monensin]
10 μM inhibitor
  Effect of pinocytosis inhibitor on uptake of TRITC-labelled polymers: did not inhibit uptake of polymers but arrested them in a seam of vesicles at the periphery of the cells
